Data taken from patent US6642392B1 (priority 1997, dated 2003).

Experiments:
Assay type in all cases: in vivo
Pyricularia oryzae = details: for Test C disease control rating: rice blast, 100 = 100% disease control, 0 = no control, unmarked entries (standard test concentration); for Test C disease control rating (100 = 100% disease control, 0 = no disease control): rice seedlings sprayed to run-off, inoculated the following day, rating relative to controls, unmarked compounds (standard test rate)
Phytophthora infestans = details: for Test D disease control rating: tomato late blight, 100 = 100% disease control, 0 = no control, unmarked entries (standard test concentration); for Test D disease control rating (100 = 100% disease control, 0 = no disease control): tomato seedlings sprayed to run-off, inoculated the following day, rating relative to controls, unmarked compounds (standard test rate)
Puccinia recondita = test: Test B: wheat leaf rust, preventive spray on wheat seedlings; details: for Test B disease control rating: wheat leaf rust, 100 = 100% disease control, 0 = no control, unmarked entries (standard test concentration); for Test B disease control rating (100 = 100% disease control, 0 = no disease control): wheat seedlings sprayed to run-off, inoculated the following day, rating relative to controls, unmarked compounds (standard test rate)
Protocol: (§1) The resulting test suspensions were then used in the following tests. […]
(§2) The test suspension was sprayed to the point of run-off on wheat seedlings. The following day the seedlings were inoculated with a spore suspension of Puccinia recondita (the causal agent of wheat leaf rust) and incubated in a saturated atmosphere at 20° C. for 24 h, and then moved to a growth chamber at 20° C. for 6 days, after which disease ratings were made.
(§3) Results for Tests A-E are given in Table A. In the table, a rating of 100 indicates 100% disease control and a rating of 0 indicates no disease control (relative to the controls). A dash (-) indicates no test results. ND indicates disease control not determined due to phytotoxicity.

[1] = tested on: Eiysiphe graminis f. sp. tritici; test: Test A: wheat powdery mildew, preventive spray on wheat seedlings; details: for Test A disease control rating: wheat powdery mildew, 100 = 100% disease control, 0 = no control relative to controls, unmarked entries (standard test concentration); for Test A disease control rating (100 = 100% disease control, 0 = no disease control): wheat seedlings sprayed to run-off, inoculated the following day, rating relative to controls, unmarked compounds (standard test rate)
Protocol: as §1
The test suspension was sprayed to the point of run-off on wheat seedlings. The following day the seedlings were inoculated with a spore dust of Eiysiphe graminis f. sp. tritici, (the causal agent of wheat powdery mildew) and incubated in a growth chamber at 20° C. for 7 days, after which disease ratings were made.
as §3

Botrytis cinerea = test: Test E: gray mold, preventive spray on cucumber seedlings; details: gray mold on cucumber; 100 = 100% disease control, 0 = no control; unmarked entries (standard test concentration)
Protocol: The resulting test suspensions were then used in the following tests. Spraying these 200 ppm test suspensions to the point of run-off on the test plants is the equivalent of a rate of 500 g/ha.
as §2, with “cucumber” for “wheat”, “Botrytis cinerea” for “Puccinia recondita”, “gray mold on many crops)” for “wheat leaf rust)”, “48” for “24”, “and” for “and then”, “5” for “6”
as §3

Row | SMILES | Test C disease control rating (Pyricularia oryzae) [%] | Test D disease control rating (Phytophthora infestans) [%] | Test B disease control rating (Puccinia recondita) [%] | Test A disease control rating [1] [%] | Test E disease control rating (Botrytis cinerea) [%] | Test C disease control rating (100 = 100% disease control, 0 = no disease control) (Pyricularia oryzae) [%] | Test D disease control rating (100 = 100% disease control, 0 = no disease control) (Phytophthora infestans) [%] | Test B disease control rating (100 = 100% disease control, 0 = no disease control) (Puccinia recondita) [%] | Test A disease control rating (100 = 100% disease control, 0 = no disease control) [1] [%]
1 | CC(COc1ccccc1)NC(=O)C(C#N)C(C)(C)C (mixture of isomers) [1a] | 53 | 0 | 0 | 60 | 0 |  |  |  | 
2 | CC(COc1ccccc1F)NC(=O)C(C#N)C(C)(C)C (mixture of isomers) [2a] | 0 | 0 | 0 | 0 | 55 |  |  |  | 
3 | CC(COc1cccc(F)c1)NC(=O)C(C#N)C(C)(C)C (mixture of isomers) [3a] | 94 | 0 | 0 | 85 | 55 |  |  |  | 
4 | CC(COc1ccc(F)cc1)NC(=O)C(C#N)C(C)(C)C (mixture of isomers) [4c] | 94 | 0 | 0 | 35 | 58 |  |  |  | 
5 | CC(COc1ccccc1Cl)NC(=O)C(C#N)C(C)(C)C (mixture of isomers) [5a] | 0 | 0 | 68 | 0 | 0 |  |  |  | 
6 | CCCc1ccccc1OCC(C)NC(=O)C(C#N)C(C)(C)C (mixture of isomers) [21b] | 99 |  | 27 | 37 | 0 |  |  |  | 
7 | CCC1(C(=O)NC(C)COc2ccccc2)C(C)C1(Cl)Cl (mixture of isomers) [77a] | 86 |  | 28 | 73 | 0 |  |  |  | 
8 | CCC1(C(=O)NC(C)COc2ccccc2F)C(C)C1(Cl)Cl (mixture of isomers) [78b] | 99 |  | 0 | 84 | 0 |  |  |  | 
9 | CCC1(C(=O)NC(C)COc2cccc(Br)c2)C(C)C1(Cl)Cl (mixture of isomers) [85a] | 53 |  | 0 | 55 | 0 |  |  |  | 
10 | CCC1(C(=O)NC(C)COc2ccccc2C#N)C(C)C1(Cl)Cl (mixture of isomers) [89b] | 91 |  | 68 | 26 | 47 |  |  |  | 
11 | CC(COc1c(F)c(F)cc(F)c1F)NC(=O)C(C#N)C(C)(C)C (mixture of isomers) [compound 195] | 99 | 32 | 0 | 85 |  |  |  |  | 
12 | CC(COc1c(Br)cc(F)cc1Br)NC(=O)C(C#N)C(C)(C)C (mixture of isomers) [compound 196] | 86 | 0 | 0 | 0 |  |  |  |  | 
13 | CC(COc1c(Cl)cc(F)cc1Cl)NC(=O)C(C#N)C(C)(C)C (mixture of isomers) [compound 197] | 86 | 0 | 0 | 59 |  |  |  |  | 
14 | CC(COc1cc(Cl)ccc1F)NC(=O)C(C#N)C(C)C(C)(C)C (mixture of isomers) [compound 199] | 97 | 5 | 68 | 85 |  |  |  |  | 
15 | CC(COc1cc(Cl)ccc1F)NC(=O)C(C#N)C(C)(C)C=CF (mixture of isomers) [compound 224] |  |  |  |  |  | 100 | 5 | 0 | 85
16 | CC(COc1cc(F)ccc1OC(F)(F)C(F)F)NC(=O)C(C#N)C(C)(C=CF)CF (mixture of isomers) [compound 225] |  |  |  |  |  | 100 | 5 | 86 | 91
17 | Cc1ccc(F)c(OCC(C)NC(=O)C(C#N)C(C)(C=CF)CF)c1 (mixture of isomers) [compound 226] |  |  |  |  |  | 100 | 0 | 0 | 0
18 | Cc1ccc(Cl)c(OCC(C)NC(=O)C(C#N)C(C)(C=CF)CF)c1 (mixture of isomers) [compound 227] |  |  |  |  |  | 100 | 0 | 0 | 0
19 | C#CC(C)(C)C(C#N)C(=O)NC(C)COc1cc(Cl)ccc1F (mixture of isomers) [compound 320] |  |  |  |  |  | 100 | 0 | 68 | 59
20 | C[C@H](COc1cc(Cl)ccc1F)NC(=O)C(C#N)C(C)(C)C (single isomer, unassigned) [198a] | 100 | 5 | 28 | 75 |  |  |  |  | 
21 | C[C@H](COc1cc(Cl)ccc1F)NC(=O)C(C#N)C(C)(C)C (single isomer, unassigned) [198b] | 100 | 5 | 28 | 59 |  |  |  |  | 
22 | C=CC(C)(C)C(C#N)C(=O)N[C@H](C)COc1cc(Cl)ccc1F (single isomer, unassigned) [200a] | 100 | 5 | 0 | 0 |  |  |  |  | 
23 | C=CC(C)(C)C(C#N)C(=O)N[C@H](C)COc1cc(Cl)ccc1F (single isomer, unassigned) [200b] | 100 | 5 | 0 | 0 |  |  |  |  | 
24 | CCC1(C(=O)NCCCn2c(C#N)cc(Cl)c2Cl)C(C)C1(Cl)Cl (stereo not shown) [compound 151] | 91 |  | 0 | 0 | 0 |  |  |  | 
25 | CCC1(C(=O)NCCCn2c(Cl)ccc2C#N)C(C)C1(Cl)Cl (stereo not shown) [compound 152] | 86 |  | 68 | 55 | 0 |  |  |  | 
26 | CCC1(C(=O)NC(C)COc2cc(F)c(F)cc2Br)C(C)C1(Cl)Cl (stereo not shown) [compound 235] |  |  |  |  |  | 91 | 0 | 0 | 0
27 | CCC1(C(=O)NC(C)COc2ccc(F)c(F)c2F)C(C)C1(Cl)Cl (stereo not shown) [compound 238] |  |  |  |  |  | 74 | 0 | 0 | 62
28 | CCC1(C(=O)NC(C)COc2cc(Cl)ccc2F)C(C)C1(Cl)Cl (stereo not shown) [compound 252] |  |  |  |  |  | 99 | 5 | 0 | 0
29 | CCC1(C(=O)NC(C)COc2cc(F)ccc2Cl)C(C)C1(Cl)Cl (stereo not shown) [compound 253] |  |  |  |  |  | 100 | 0 | 0 | 59
